For series [1] the following is noted: administered orally on an empty stomach; cited from earlier work.
In series [2] the test system is platelet count. The procedure: (§1) Four different loading doses were tested, which were: 7, 14, 28 and 42 mg, and the maintenance doses were half of the respective loading dose. The loading dose was administered prior to chemoradiation, and for the duration of treatment the respective maintenance doses were administered twice a week (i.e., a patient administered a 7 mg loading dose received two separate maintenance doses of 3.5 mg each week for 8 weeks.) The primary focus of this study is to determine the maximum tolerated dose of four dose levels. […] All subjects have a diagnosis of glioblastoma (WHO grade IV) and mean age is 62.7 years (range 54 years to 80 years).
In patients receiving temozolomide the standard of care is to stop therapy for patients developing a platelet count below 100,000.

The conditions of series [3]: TMZ in combination with RT; cited from earlier work.
For series [4] the following is noted: stored at 27° C.; cited from earlier work.
For series [5], the system named is normal tissue injury following RT+cisplatin. The procedure: Mice were treated with 1×9Gy+6 mg/kg cisplatin.
(§2) A collimating cone that produced a 15 mm×40 mm radiation field was used to target the radiation beam to the salivary gland and oral cavity. The RT field included all major and minor salivary glands (located primarily in the neck region of mice), and the oral mucosa, including glands of the cheeks, lips and tongue. The target tissues were localized within the radiation field with a source-to-subject distance of 30.76 cm, using fluoroscopy at 40 kVp and 2.5 mA with a 2 mm Al filter. […] Control mice were anesthetized but not imaged fluoroscopically or irradiated.
Mucositis evaluation using fluorescence molecular tomography: As reported previously, we used ProSense 750EX (Perkin Elmer, Waltham, MA) to detect mucositis. ProSense 750EX is a near-infrared (NIR) imaging agent that is cleaved by cathepsins, a family of enzymes that are expressed during inflammation, (17). Mice were injected intravenously with 100 μL ProSense 750EX. Twenty-four hours after injection, mice were anesthetized via isoflurane and imaged using the Visen FMT 2500LX (Perkin Elmer). The ProSense 750EX signal was quantified using TrueQuant software (Perkin Elmer Life and Analytical Sciences, Downers Grove, IL).

Series [6] has as its system GSH/GSSG. The settings on record: MnBuOE 0.2 mg/kg 24 hours prior to RT (9 Gy); 24 hours post-RT. The procedure: (§3) MnBuOE synthesis and administration: MnBuOE was synthesized as previously described. […] Mouse injections were administered subcutaneously, with MnBuOE dissolved in sterile saline. Mice received an initial dose of 0.2, 0.6, or 2.0 mg/kg, followed by three times per week (t.i.w.) maintenance doses of one-half of the loading dose (i.e., 0.1, 0.3, or 1.0 mg/kg, respectively) (termed 2/1, 0.6/0.3 and 0.2/0.1 dosing schedules).

The test system of series [7] is FaDu (human pharyngeal carcinoma) cells.
Experimental: For tumor control studies, female nu/nu mice were obtained from the Duke University Breeding Facility. Mice were group housed in a barrier facility and allowed to acclimate to their new environment for at least one week before experiments.
Tumor growth delay study: FaDu (human pharyngeal carcinoma) cells were obtained from the Duke University Cell Culture facility and were confirmed to be free of mycoplasma and known rodent pathogens. Cells were grown in Dulbecco's modified Eagle's medium with 10% fetal bovine serum. Mice were injected s.c. in the right flank with 3×10^6 cells suspended in 100 ml serum-free media. Seven days after implantation mice were randomized to treatment groups that received either MnBuOE (0.6 mg/kg loading dose followed by t.i.w. 0.3 mg/kg (loading/3× weekly maintenance) MnBuOE or an equivalent volume of saline. Tumors were measured daily with calipers and the volume was calculated using the equation V=(A^2×B×π)/6, where A is the shortest diameter and B is the longest diameter. As tumors reached 200 mm^3, they randomized into radiation treatment groups consisting of three daily fractions of radiation (6, 9, 12, 15 or 17 Gy/fraction) administered on three consecutive days. Cisplatin (6 mg/kg; APP pharmaceuticals, Schaumberg, IL) was injected intraperitoneally four hours prior to the first radiation fraction. […]
Series [8] relates to cognitive function. The settings on record: eight subjects, before vs after concurrent chemoradiation (8 weeks). The procedure: as §1
Cognitive testing included Hopkins Verbal Learning Test-Revised (HVLT-R), Trails Making A and B Tests, and Controlled Oral Wood Association Test (COWA). […] This is notable because these are the primary cognitive tests that reveal poorer performance in multiple brain mestastases patients after whole brain radiation therapy.

Series [9] deals with mucositis.
Text: Animals: For normal tissue studies, six-to-eight week-old female C57B1/6 mice were used (Jackson Laboratory, Bar Harbor, ME). […] Mice were group housed in a barrier facility and allowed to acclimate to their new environment for at least one week before experiments.
Mucositis evaluation using fluorescence molecular tomography: As reported previously, we used ProSense 750EX (Perkin Elmer, Waltham, MA) to detect mucositis. […] The ProSense 750EX signal was quantified using TrueQuant software (Perkin Elmer Life and Analytical Sciences, Downers Grove, IL).
The subject of series [10] is xerostomia. The settings on record: 11 weeks post-RT (9 Gy); 2/1 mg/kg MnBuOE; vs unirradiated control.
Experimental: Xerostomia quantification by stimulating saliva production: Mice were injected intraperitoneally with 3 μg carbomylcholine chloride (Sigma) dissolved in sterile phosphate-buffered saline. Salivation began 2 minutes after injection. Saliva was collected via pipette for 4 minutes. The volume was measured gravimetrically, assuming a density of 1 g/mL.
Series [11] has as its system leukocyte-endothelial cell interactions. The settings on record: for Effect, repeated measures ANOVA of shear rates / Effect, repeated measures ANOVA of vessel diameter / Effect, repeated measures ANOVA of blood velocity: vs baseline (saline). On the procedure: as §3, §2
Mice were anesthetized with 80/8 mg/kg ketamine/xylazine mixture. Acridine orange (Sigma-Aldrich, St. Louis, MO) was injected intravenously (100 μl of 0.1% acridine orange in saline). The ventral surface of the tongue was placed on a glass cover slip before mounting the mouse onto a Zeiss Observer. Z1 (Carl Zeiss A G, Oberkochen, Germany) inverted microscope equipped with Zeiss Filter Set 38.
Fluorescent excitation was performed at 470 nm, and video was obtained at 525 nm using a 40× objective. Two separate regions with at least four veins in the […] range were identified, and a 60-120 second long video at 5 frames-per-second was obtained using Zen Imaging Software (Carl Zeiss A G, Oberkochen, Germany). Mice were kept warm while anesthetized using a heated stage.
Leukocyte-endothelial cell interaction analysis: All video analysis was performed in a blinded fashion. Rolling leukocytes were defined as cells that marginated along the vessel wall and were clearly dissociated from the bulk blood flow. Four vessels were analyzed per mouse. Leukocyte counting was repeated in triplicate for each vessel and averaged to obtain the flux of rolling leukocytes (Frolling). Vessel diameter (D) and the velocity of at least one free-flowing leukocyte(s) (VL) were also measured. A pseudo shear rate (gs) was also calculated for each vessel as: gs=8VL/D. These methods have been described previously. (18)

In series [12] the test system is FaDu tumors. Particulars: MnBuOE 1.5 mg/kg b.i.d.; five fractions of radiation (5-10 Gy/fraction); previous work (13); cited from earlier work.
For series [13] the following is noted: in vivo, 1.5 mg/kg. From the text:
The magnitude of such oxidative modification is directly related to the levels of major reactive species involved in the process: H2O2 and MnBuOE.

Read-outs that look alike come from different tables or passages of the source.

Consider `Cn1nnc2c(C(N)=O)ncn2c1=O` [TMZ, 8-Carbamoyl-3-methylimidazol[5,1-d]-1,2,3,5-tetrazine-4-(3H)-one], for which, in [1], the bioavailable entry is recorded as “approximately 100%”. The “patients who developed platelets below 100,000” value in [2] (temozolomide + radiation without BMX-001, n=20) is 9 out of 20. In series [3], the “Grade 3/4 non-hematological toxicity: Fatigue” value is listed as 7%; the “Grade 3/4 non-hematological toxicity: infection” value is reported as 3%; the “Grade 3/4 non-hematological toxicity: nausea and vomiting with a 5HT3-RA” value was below 1%; the “Grade 3/4 non-hematological toxicity: other constitutional symptoms” value is given as 2%. In [3], the “Grade 3/4 non-hematological toxicity: rash and dermatologic side effects” value was 1%; the “Grade 3/4 non-hematological toxicity: vision” value is given as 1%; the “Non-hematological grade 2 toxicity: Fatigue” value is 26%; the “Non-hematological grade 2 toxicity: infection” value is on record as 1%. Further, in series [3], the “Non-hematological grade 2 toxicity: nausea and vomiting” value was 13%; the “Non-hematological grade 2 toxicity: other constitutional symptoms” value was 7%; the “Non-hematological grade 2 toxicity: rash and dermatologic side effects” value is given as 9%; the “Non-hematological grade 2 toxicity: vision” value is 14%.
For the compound `N.N.[Cl][Pt][Cl]` [cisplatin], the “stability of reconstituted solution” value in series [4] is 20 h.
“manganese butoxyethyl pyridyl porphyrin [BMX-001]”: the “NIR signal (mucositis)” value in series [5] (1×9 Gy + 6 mg/kg cisplatin, MnBuOE 0.6 mg/kg loading, t.i.w. 0.3 mg/kg for five weeks, vs saline plus RT+cisplatin) is “significantly less NIR signal”. Also, the “xerostomia (saliva production)” value in series [5] (10, 11 and 12 weeks, MnBuOE for the first five weeks after RT+cisplatin, data not shown) is reported as “trend towards reduced xerostomia”. The body weight entry in series [5] (10 weeks post-RT+cisplatin, MnBuOE 0.6/0.3 mg/kg, vs unirradiated control mice) is reported as “not significantly different”. Moreover, in [5] (RT+cisplatin, MnBuOE vs saline), the “long-term ulcerations and moist desquamation in the irradiated area” value is “lessened”. For the same compound, in series [6], the “GSH/GSSG lower than the 0 Gy MnBuOE tongue levels” value is recorded as 4%. Besides, the “Kaplan-Meier analysis (time to tripling of tumor volume), MnBuOE vs saline treated mice” value in series [7] (0.6/0.3 mg/kg, at any radiation dose) is on record as “no significant differences”. The “slope of the dose response curve of tumor inhibition (AUC of dynamic treatment effect curves), MnBuOE vs control arm” value in [7] (p-value=0.47) is “no significant difference”. The “Trails Making B Test” value in [8] is recorded as “faster scores”. Moreover, the “performance on Hopkins Verbal Learning Test-Revised (HVLT-R)” value in series [8] (loading 7-28 mg, half dose twice a week) is listed as “no degradation of performance”. The “NIR signal (mucositis signal)” value in series [9] (day 11 post-RT, 9 Gy, 2/1 mg/kg MnBuOE s.c. (loading/t.i.w. maintenance), vs 0 Gy control) is “significantly increased”; in series [9] (unirradiated mice, 2/1 mg/kg MnBuOE) it was “did not show an appreciable NIR signal”. Also, the “patients who developed platelet counts below 100,000” value in series [2] (BMX-001+temozolomide + radiation, loading doses 7 mg to 28 mg/subject, N=9) is “None of the nine”. For the same compound, in [10], the “stimulated salivation (xerostomia)” value was “significant (p<0.05) decreases”. Besides, the “Effect, repeated measures ANOVA of shear rates” value in series [11] (MnBuOE + RT (9 Gy)) was −0.83; in series [11] (MnBuOE alone) it was −20.88. Also, the “Effect, repeated measures ANOVA of vessel diameter” value in series [11] (MnBuOE + RT (9 Gy)) is recorded as 0.002; in [11] (MnBuOE alone), 0.009. The “Effect, repeated measures ANOVA of blood velocity” value in series [11] (MnBuOE + RT (9 Gy), 24 hours post-RT) was 0.01; in series [11] (MnBuOE alone, 24 hours post sham RT), −0.00. For the same compound, the leukocyte rolling result in series [11] (MnBuOE treatment alone) is recorded as “without increasing leukocyte rolling”. Besides, in [11] (combination of 0.2/0.1 MnBuOE and RT, 24 hours post-RT), the “mean number of rolling leukocytes” value is recorded as “decreases”. Besides, in series [12], the “dose-modifying effect (TCD50 curve)” value is 1.3. In addition, in [13], the “MnBuOE concentration in the tumor” value was in the range of 1.5 to 2 µM.

The record behind these values is US12171769B2, “Methods, compositions, and kits for treating and/or preventing a side effect associated with radiation and/or chemotherapy exposure” (BioMimetix JV, LLC, priority 2017, dated 2024).
